Patent US6960594B2, “Thiophene and furan 2,5-dicarboxamides useful in the treatment of cancer” (Shire BioChem Inc., priority 1998, dated 2005)
Several values for one entry are separate records, joined by “and”; a condition that tells them apart may be missing. Equal entries are not always repeated.

Columns and labels:
[1] = test system: Human non small-cell lung cancer cell line H460; experiment: Inhibition of metastasis in angiomouse/metamouse human lung cancer model of H460; type: in vivo, athymic BALB/c nude mice
Experimental: Male and female athymic BALB/c nude mice between 4 and 5 weeks of age were used. The animals were bred and maintained in an HEPA-filtered environment with cages, food and bedding sterilized by autoclaving. The breeding pairs were obtained from the Charles River Laboratories (Wilmington, Mass.). The animal diets were obtained from Harlan Teklab (Madison, Wis.). Ampicillin (Sigma, St Louis, Mo.) 5.0% (v/v) was added to the autoclaved drinking water.
Compound VII was tested and AGM-1470 (chloroacetyl-(3R,4S,5S,6R)-5-methoxy-4-[(2R,3R)-2-methyl-3-(3-methyl-2-butenyl)oxiranyl]-1-oxaspiro[2.5]oct-6-yl ester carbamic acid) was used as a positive control. [drawing 51] The compounds were dissolved using PEG400 with heating and sonicatin. The solutions were then diluted with saline to obtain the desired concentrations (30%/70%) and stored at −20° C.
Human non small-cell lung cancer cell line H460 with expression of green fluorescent protein was obtained from the National Cancer Institute. The cells were transfected with vectors carrying the green fluorescent protein (GFP) gene. The cell line was propagated by subcutaneous implantation in nude mice.
Test animals were transplanted by surgical orthotopic implantation (SOI) using fragments harvested from subcutaneaous tumor stock animals. The animals were anesthetized with isoflurane and the surgical area was sterilized using iodine solution and alcohol. A left thoracotomy was made along the 4th intercostal space using a pair of scissors. Two pieces of H460 tumor tissue of one cubic millimiter each were sutured to the left lung using an 8-0 nylon surgical suture. The thorax was closed using a sterile 6-0 silk suture. A sterile 3-cc syringe with a 25-gauge needle was used to remove the air and inflate the lung. All surgical and animal manipulations and procedures were conducted under HEPA-filtered laminar flow hoods.
Extra numbers of mice were transplanted to compensate for postsurgical losses. The orthotopically transplanted animals used were selected to establish groups of similar mean body weight. Groups for each of the cohort conditions wre randomly chosen. The cohort was grouped as follows. A total of 10 mice were used for each dosage regimen. Administration of test compounds and vehicle by subcutaneous injection was begun three days after the orthotopic implantation.
Two animals for each treatment group were sacrificed at day-14 after orthotopic implantation of H460. The remaining animals for each group were sacrificed at day-28 after implantation. The sacrificed animals were evaluated for primary and secondary tumors. Gross examination for distant metastasis was conducted at necropsy. Tissue samples of the primary tumor and those from relevant organs such as the lung, the liver and the lymph nodes wre processed through standards procedures of hematoxylin and eosin staining for subsequent microscopic examination.
The mediastinal lymph nodes, the liver and the lung in each animal were collected. The sampled tissues were sectioned and stained, then microscopically examined. The fisher-exact test was performed to compare distant metastasis to these organs in the treated and the controls. […]

[2] = target: T1, αvβ5 (Homo sapiens, UniProt P06756+P18084); experiment: Cell adhesion assay, HT29 on vitronectin; type: cell-based
T1 construct: Cells HT29, K562, or K562 transfected with αvβ3; endogenous in cells; host or cells: HT29
T1 sequence (P06756 31-889 limits assumed): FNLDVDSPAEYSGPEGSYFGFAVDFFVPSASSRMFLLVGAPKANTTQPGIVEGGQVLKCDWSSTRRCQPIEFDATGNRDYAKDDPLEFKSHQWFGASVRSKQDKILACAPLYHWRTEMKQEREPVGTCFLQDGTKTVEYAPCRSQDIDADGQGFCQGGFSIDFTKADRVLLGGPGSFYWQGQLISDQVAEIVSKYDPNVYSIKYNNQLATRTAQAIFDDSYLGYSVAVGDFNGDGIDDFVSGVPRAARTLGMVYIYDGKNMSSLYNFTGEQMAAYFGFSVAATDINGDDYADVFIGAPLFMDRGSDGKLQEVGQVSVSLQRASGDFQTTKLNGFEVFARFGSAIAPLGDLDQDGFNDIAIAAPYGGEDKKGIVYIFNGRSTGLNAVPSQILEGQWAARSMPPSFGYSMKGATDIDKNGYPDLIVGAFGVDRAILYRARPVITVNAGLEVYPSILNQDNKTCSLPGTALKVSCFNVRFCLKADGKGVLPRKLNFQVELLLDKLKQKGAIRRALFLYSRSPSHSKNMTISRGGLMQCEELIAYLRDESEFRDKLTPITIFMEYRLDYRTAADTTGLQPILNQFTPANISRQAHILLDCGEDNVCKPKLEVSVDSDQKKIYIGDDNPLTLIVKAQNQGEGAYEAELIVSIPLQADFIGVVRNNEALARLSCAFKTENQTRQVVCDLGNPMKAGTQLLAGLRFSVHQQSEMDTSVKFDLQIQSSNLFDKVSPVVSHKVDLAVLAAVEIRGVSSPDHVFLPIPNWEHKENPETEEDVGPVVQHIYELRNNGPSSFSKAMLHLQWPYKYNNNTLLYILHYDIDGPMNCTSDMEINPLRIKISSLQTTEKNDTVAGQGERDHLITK
T1 sequence (P06756 891-1048 partner limits assumed): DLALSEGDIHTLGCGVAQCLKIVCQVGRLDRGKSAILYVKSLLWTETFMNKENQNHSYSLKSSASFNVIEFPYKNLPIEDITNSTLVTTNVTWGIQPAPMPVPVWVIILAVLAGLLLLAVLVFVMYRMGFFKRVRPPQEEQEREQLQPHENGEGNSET
T1 sequence (P18084 24-799): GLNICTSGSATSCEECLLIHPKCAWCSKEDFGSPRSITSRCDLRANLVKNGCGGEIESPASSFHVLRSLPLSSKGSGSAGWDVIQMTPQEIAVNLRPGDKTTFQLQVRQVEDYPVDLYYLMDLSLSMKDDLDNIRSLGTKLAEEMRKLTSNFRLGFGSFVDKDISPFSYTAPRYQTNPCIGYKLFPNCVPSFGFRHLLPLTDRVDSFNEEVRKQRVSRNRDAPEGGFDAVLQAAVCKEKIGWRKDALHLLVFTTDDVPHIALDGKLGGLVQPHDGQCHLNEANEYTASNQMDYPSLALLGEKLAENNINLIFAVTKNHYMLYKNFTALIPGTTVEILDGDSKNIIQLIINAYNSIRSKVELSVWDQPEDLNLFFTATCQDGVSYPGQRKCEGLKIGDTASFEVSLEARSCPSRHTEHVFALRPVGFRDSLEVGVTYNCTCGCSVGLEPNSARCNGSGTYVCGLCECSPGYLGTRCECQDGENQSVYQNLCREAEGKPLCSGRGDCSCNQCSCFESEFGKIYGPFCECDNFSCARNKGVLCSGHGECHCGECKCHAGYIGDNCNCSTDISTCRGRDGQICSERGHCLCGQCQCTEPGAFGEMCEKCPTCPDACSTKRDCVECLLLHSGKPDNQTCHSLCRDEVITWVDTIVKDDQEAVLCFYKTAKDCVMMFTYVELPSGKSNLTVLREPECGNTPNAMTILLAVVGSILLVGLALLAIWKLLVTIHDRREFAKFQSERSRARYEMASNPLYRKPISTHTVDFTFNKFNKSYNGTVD
Experimental: The wells of 96-well plates (Immunolon) were coated, by incubation overnight at 4° C., with 5 ug/mL vitronectin, 2 ug/mL osteopontin, or fibronectin or 10 mg/mL BSA in PBS. The protein solution was flicked out and the wells were blocked with 10 mg/mL BSA (0.1 mL) for 1-2 hours at 37° C. […] Cells were lifted with trypsin-EDTA and washed two times with Hank's balanced salt solution minus cations (Sigma) supplemented with 1 mM MgCl2 Cells (75,000 cells/well) were added to coated plates in triplicate and allowed to attach at 37° C. for 1 hour in the presence or absence of specific antibodies (5 ug/mL) or 10-fold dilutions of compounds of interest starting at 10 uM. Nonadherent cells were removed by gentle washing twice with PBS. The adherent cells were solubilized with 1% triton x-100 and detected using a fluorescence plate reader (DYNEX Technologies). The number of attached cells was calculated based upon standard curves for each cell line used in the experiment.

[3] = test system: Chick chorioallantoic membrane (CAM) capillary formation driven by VPF/VEGF165; experiment: Chick chorioallantoic membrane (CAM) mesh assay; type: in vivo, chicken; conditions: significant if >25%
Experimental: Fertilized white leghorn chicken eggs (SPAFAS Inc., Norwich, Conn.) were received at day 0 and incubated for 3 days at 37 C with constant humidity. On day 3, eggs were rinsed with 70% ethanol and opened into 100 mm^2 tissue culture coated Petri dishes under aseptic conditions. The embryos were then returned to a humidified 38 C incubator for 7-9 additional days.
Vitrogen (Collagen Biomaterials, Palo Alto, Calif.) at a final concentration of 0.73 mg/mL and Matrigel (Becton Dickinson, Bedford, Mass.) at a final concentration of 10 mg/mL was directly pipetted onto Nylon meshes with 250 μm^2 openings which were cut into 4 mm×4 mm squares and autoclaved. Polymerization of meshes were under aseptic conditions, on bacteriological Petri dishes. The polymerization conditions for each substrate were identical; after mixing with or without 250 μg of VPF/VEGF165 (Peprotech, Rocky Hill, N.J.) and/or compounds of interest, 40 μL were pipetted onto each mesh in a bacteriological Petri dish. The Petri dish was placed in a humidified 37 C incubator with 5% CO2 for 30 minutes to allow polymerization followed by an incubation at 4° C. for 2 hours.
In a tissue culture enclosure, meshes were placed onto the periphery of the CAM of a day 12-14 embryo, excluding areas containing major vessels. The embryos were then returned to the humidified 38° C. incubator with 3% CO2 for 24 to 48 additional hours.
Embryos were removed from the incubator and meshes were viewed under a dissecting microscope for gross evaluation. Injection of 400 μL FITC dextran, MW 2,000,000 (Sigma, St. Louis, Mo.) through glass microcapillary tubes by infusion into the umbilical vein was performed at a rate of 200 μl per minute. The FITC dextran was allowed to circulate for 5 minutes and 3.7% formaldehyde in PBS was applied directly on each mesh. The embryos were then incubated at 40° C. for 5 minutes and the meshes were dissected off the CAM and fixed in 3.7% formaldehyde for 10 minutes to overnight.
After fixation, meshes were mounted on slides with 90% glycerol in PBS and visualized on an inverted fluorescence microscope. A Nikon Diaphot with a Sony DXC-151A camera attached to the side port was used for capture of images and analysis was with the NIH Image 1.61 software program. For each mesh, 5 random staggered images (approximately 600 μm each) were captured. The areas of high intensity were highlighted and measured. Results are expressed as ability to suppress capillary formation after subtraction from negative control. Values were calculated as a inhibition, considering 100% the capillary density achieved by VPF in the presence of vitrogen alone minus the bakground levels in the absence of VPF. Negative values indicated angiogenic stimulation above the VPF positive control.

[4] = Group C, 5 mg/kg SC 2 times/day

NCCCNC(=O)c1ccc(C(=O)NC(CC(=O)O)c2ccccc2)s1.O=C(O)C(F)(F)F (stereo not drawn) [Compound VII, 3-{[5-(3-Amino-propylcarbamoyl)-thiophene-2-carbonyl]-amino}-3-phenyl-propionic acid trifluoroacetic acid salt]
Incidence of lung metastasis [1, 4]: 1/10 | Incidence of lymph node metastasis [1, 4]: 2/10 | Incidence of lymph node metastasis ([1]; Group D, 50 mg/kg SC 2 times/day): 3/10 | Incidence of lung metastasis ([1]; Group D, 50 mg/kg SC 2 times/day, trifluoroacetic acid salt, 50 mg/kg): no lung metastasis and 0/10 | IC50 [2]: > 10 µM | % of inhibition at 33 μg/mesh in the presence of VEGF [3]: 34%
